From US20220323376A1, “METHODS AND COMPOSITIONS FOR SENSITIZING CANCER CELLS TO DRUG-INDUCED APOPTOSIS” (New York University, priority 2019, published 2022)

Assays:
AML cells = assay: Cell death by Annexin V flow cytometry; type: cell-based, human
Procedure: Cell Cycle and Apoptosis. To assess cell cycle, we performed the 5-ethynyl-2′-deoxyuridine (EdU) incorporation assay using the Click-iT Plus EdU Alexa Fluor 647 kit as described in manufacturer's protocol (Life Technologies). Apoptosis analysis was determined using APC Annexin V (BD Bioscience) and 4′,6-Diamidino-2-Phenylindole, Dihydrochloride (DAPI) for DNA content. Both EdU and Annexin V stained cells were analyzed by flow cytometry and FlowJo software.

[1] = system: mouse AML cell line RN2 (MLL-AF9; Kras)
Procedure: ZIP model was used to calculate the delta-score of synergisms of the combination treatments. […] ZIP model was used to calculate the delta-score of synergisms of the combination treatments. […] ZIP model was used to calculate the delta-score of synergisms of the combination treatments.
Drug Treatment and IC50 Measurements. Cells were plated in 96-well plates and exposed to Venetoclax at concentrations ranging from 0.4 nM to 300 nM (for MOLM-13 and MV4-11), 150 nM to 10 μM (for Venetoclax-resistant cell lines and THP-1) with a minimum of three technical replicates per concentration per cell line. Cell viability was measured with the CellTiter-Glo reagent (Promega) according to manufacturer's instructions. Absolute viability values were converted to percentage viability versus DMSO control treatment, and then non-linear fit of log(inhibitor) versus response (three parameters) was performed in GraphPad Prism v7.0 to obtain the IC50 values. For Venetoclax and Azacitidine combined treatment, two drugs were mixed at the fixed ratio (Ven:Aza=1:4) before diluting to certain concentrations.

[2] = system: human AML cell lines (MOLM-13, MV4-11, THP-1, KASUMI-1); assay: Venetoclax/drug IC50 by CellTiter-Glo in sgRNA-transduced AML cell lines; type: cell-based; settings: for Synergistic effect of CLPB ablation with the drug: MOLM-13 and MV4-11 with sgCLPB or sgRosa, 48 hrs
Description: (§1) Drug Treatment and IC50 Measurements.

[3] = system: AML cells (THP-1, MOLM-13); assay: Western blotting of AML cell lysates after drug treatment; type: cell-based, human; settings: for CLPB protein levels in cells surviving drug treatment: MOLM-13, Venetoclax (IC50) 10 days, Idarubicin 10 nM 2 days
Procedure: Biochemistry. Protein lysis was performed with RIPA buffer (Thermo Fisher Scientific) in presence of proteases inhibitor cocktail (PIC, Sigma) for 30 min at 4° C. After centrifugation at maximal speed for 20 min, supernatants were collected and protein concentration was determined using Bradford reagent (Bio-Rad).
Protein lysates (25-30 μg) were loaded onto 4%-12% Bis-Tris or 3%-8% Tris-acetate polyacrylamide gels (Thermo Fisher Scientific), transferred onto PVDF membranes (Millipore) and probed using the following antibodies: anti-CLPB polyclonal (1:2000, Proteintech, Cat #15743-1-AP), anti-TFAM (1:500, Santa Cruz, Cat #sc-376672), anti-OPA1 monoclonal (1:1000, BD Biosciences, Cat #612606), anti-SDHA monoclonal (1:2500, Abcam, Cat #ab14715), anti-HAX1 polyclonal (1:1000, Proteintech, Cat #11266-1-AP), anti-cytochrome c monoclonal (1:4000, Thermo Fisher Scientific, Cat #BDB556433), anti-caspase-3 monoclonal (1:1000, Proteintech, Cat #66470-2-Ig), anti-cleaved caspase-3 polyclonal (1:1000, Cell Signaling, Cat #9661S), anti-GRP75 monoclonal (1:1000, Santa Cruz, Cat #sc-133137), anti-TOM20 monoclonal (1:500, Santa Cruz, Cat #sc-17764), anti-p53 monoclonal (1:1000, Active Motif North America, Cat #39553), anti-BCL-2 polyclonal (1:200, R&D Systems, Cat #AF810-SP), anti-MCL1 polyclonal (1:1000, Proteintech, Cat #16225-1-AP), anti-BCL-XL monoclonal (1:500, R&D Systems, Cat #MAB894SP), anti-NOXA monoclonal (1:500, Abcam, Cat #ab13654), anti-GAPDH polyclonal (1:10000, Proteintech, Cat #10494-1-AP), anti-LAMIN A polyclonal (1:1000, Santa Cruz, Cat #sc-6214) and anti-ACTIN (1:10000, Millipore, Cat #MAB1501) antibodies. Isotype matched secondary antibodies were conjugated to horseradish peroxidase (GE Healthcare) and chemiluminescence was detected with ECL (Life Technologies) using films. Band densitometric analysis was performed using ImageJ (National Institutes of Health).

[4] = system: human AML cell lines (MOLM-13, KASUMI-1); assay: IC50 curves of AMG176 in combination with Mdivi-1; type: cell-based; settings: AML cells
[5] = system: MOLM-13-Par or MOLM-13-VR xenografts; assay: MOLM-13 parental and VR xenografts in NSG mice, Venetoclax by oral gavage; type: in vivo, NOD SCID gamma (NSG) mice
Procedure: Animal experiments. For in vivo experiments, Cas9 and luciferase-expressing parental and Venetoclax-resistant MOLM-13 cells were transduced with sgRosa or sgCLPB #1 constructs. At day 2 post-transduction, sgRNA positive cells (GFP) were sorted by FACS. 0.5 million sgRNA-expressing leukemia cells were intravenously injected into recipient NSG mice. For experiments that required drug administration, recipient mice were treated with vehicle or Venetoclax (100 mg/kg, Selleckchem) daily by oral gavage from day 6 to day 20. Venetoclax was prepared in 10% ethanol, 30% polyethyleneglycol-400 (Sigma), and 60% phosal 50 propylene glycol (Lipoid). Whole-body bioluminescent imaging was performed at indicated time points by intraperitoneally injection of Luciferin (Goldbio) at a 50 mg/kg concentration and imaging was performed after 5 mins using an IVIS imager. Bioluminescent signals (radiance) were quantified using Living Image software with standard regions of interests (ROI) rectangles. Peripheral blood of recipient NSG mice was collected at indicated time points after transplantation, and sgRNA positive cells (GFP+) were analyzed by flow cytometry. All animal experiments were performed in accordance with protocols approved by the New York University Institutional Animal Care and Use Committee (IACUC, ID: IA16-00008_TR1).
Animals. […]

[6] = system: Venetoclax-resistant (VR) MOLM-13 and MV4-11 cells; assay: Venetoclax IC50 in parental versus Venetoclax-resistant (VR) AML cell lines; type: cell-based, human
Procedure: For the generation of the Venetoclax-resistant cell lines, MOLM-13 and MV4-11 were cultured in media containing increasing doses of Venetoclax (from 5 nM to 1000 nM) for more than 8 weeks to achieve complete resistance to the drug.
as §1

[7] = system: AML cells (THP-1, MOLM-13, MV4-11); assay: Mitochondrial membrane potential by TMRM staining; type: cell-based, human; settings: 16 hrs
Procedure: Mitochondrial Membrane Potential. Mitochondrial membrane potential was monitored cytofluorimetrically using tetramethylrhodamine methyl ester (TMRM). Cells were loaded with 10 nM TMRM in presence of 2 μM Cyclosporin H in Hank's Balanced Salt Solution (HBSS) supplemented with 10 mM HEPES, 30 min at 37° C. When indicated, the experiments were performed in cells pre-treated with Venetoclax for 16 hours at the indicated concentrations.

[8] = system: AML cells (THP-1 and MOLM-13); assay: Electron microscopy-based morphometric analysis of mitochondria; type: cell-based, human; settings: THP-1 4 μM, MOLM-13 17 nM, 16 hrs
Procedure: Transmission Electron Microscopy. Cultured cells were fixed in 0.1M sodium cacodylate buffer (pH 7.4) containing 2.5% glutaraldehyde and 2% paraformaldehyde for 2 hrs and post-fixed with 1% osmium tetroxide and 1% potassium ferrocyanide for one hour at 4° C. Then block was stained in 0.25% aqueous uranyl acetate, processed in a standard manner and embedded in EMbed 812 (Electron Microscopy Sciences, Hatfield, Pa.). Ultrathin sections (60 nm) were cut, mounted on copper grids and stained with uranyl acetate and lead citrate. Stained grids were examined under Philips CM-12 electron microscope and photographed with a Gatan (4k×2.7k) digital camera. For morphometric analysis, maximal cristae width was measured using Image J (NIH) as shown in FIG. 4A in at least 50 randomly selected mitochondria from a minimum of 15 cells/experiment.

AML patients = settings: cited from earlier work

Q: With `CO[C@H]1/C=C/C[C@H](C)[C@@H](C)S(=O)(=O)NC(=O)c2ccc3c(c2)N(C[C@@H]2CC[C@H]21)C[C@@]1(CCCc2cc(Cl)ccc21)CO3` [AMG176, (3′R,4S,6′R,7′S,8′E,11′S,12′R)-7-chloro-7′-methoxy-11′,12′-dimethyl-13′,13′-dioxospiro[2,3-dihydro-1H-naphthalene-4,22′-20-oxa-13λ6-thia-1,14-diazatetracyclo[14.7.2.03,6.019,24]pentacosa-8,16(25),17,19(24)-tetraene]-15′-one] as the compound, how does the “Apoptosis induced by AMG176 upon CLPB depletion” value (AML cells; MOLM-13 and KASUMI-1 with sgCLPB, 22 hrs) read?
A: enhances the apoptosis

Q: With `CCN(CC)CCCC(C)Nc1ccnc2cc(Cl)ccc12` (stereo not drawn) [Chloroquine, N′-(7-chloroquinolin-4-yl)-N,N-diethylpentane-1,4-diamine] as the compound, how does the “IC50 of chloroquine upon addition of Venetoclax plus Azacitidine” value [1] read?
A: vice versa

Q: Which “Synergistic effect of CLPB ablation with the drug” value [2] does the source give for `Nc1ccn([C@@H]2O[C@H](CO)[C@@H](O)[C@@H]2O)c(=O)n1` [Cytarabine, 4-amino-1-[(2R,3S,4S,5R)-3,4-dihydroxy-5-(hydroxymethyl)oxolan-2-yl]pyrimidin-2-one] here?
A: no synergistic effect

Q: Which results are given for `CC(=O)[C@]1(O)Cc2c(O)c3c(c(O)c2[C@@H](O[C@H]2C[C@H](N)[C@H](O)[C@H](C)O2)C1)C(=O)c1ccccc1C3=O` [Idarubicin, (7S,9S)-9-acetyl-7-{[(2R,4S,5S,6S)-4-amino-5-hydroxy-6-methyloxan-2-yl]oxy}-6,9,11-trihydroxy-5,7,8,9,10,12-hexahydrotetracene-5,12-dione]?
A: CLPB protein levels in cells surviving drug treatment [3]: did not lead to increase of CLPB protein levels; Synergistic effect of CLPB ablation with the drug [2]: no synergistic effect

Q: With `Cc1sc2c(c1C)C(c1ccc(Cl)cc1)=N[C@@H](CC(=O)OC(C)(C)C)c1nnc(C)n1-2` [JQ-1] as the compound, how does the “Synergistic effect of CLPB ablation with the drug” value [2] read?
A: no synergistic effect

Q: With `COc1cc(-n2c(=S)[nH]c3ccccc3c2=O)c(Cl)cc1Cl` [Mdivi-1, 3-(2,4-dichloro-5-methoxyphenyl)-2-sulfanylidene-1H-quinazolin-4-one] as the compound, how does the “Combination effect with AMG176” value [4] read?
A: synergistic effects with AMG176

Q: Which “Caspase-3 activation in AML cells lacking CLPB relative to wild-type” value ([3]; MOLM-13 35 nM, THP-1 4 μM, 16 hrs) does the source give for `CC1(C)CCC(CN2CCN(c3ccc(C(=O)NS(=O)(=O)c4ccc(NCC5CCOCC5)c([N+](=O)[O-])c4)c(Oc4cnc5[nH]ccc5c4)c3)CC2)=C(c2ccc(Cl)cc2)C1` [Venetoclax, 4-[4-[[2-(4-chlorophenyl)-4,4-dimethylcyclohexen-1-yl]methyl]piperazin-1-yl]-N-[3-nitro-4-(oxan-4-ylmethylamino)phenyl]sulfonyl-2-(1H-pyrrolo[2,3-b]pyridin-5-yloxy)benzamide] here?
A: prevalent caspase-3 activation

Q: And the “CLPB protein levels in cells surviving drug treatment” value [3]?
A: significant increase in the CLPB protein

Q: What about the Caspase-3 cleavage ([3]; THP-1, 4 μM, 16 hrs) of the same compound?
A: caspase activation

Q: What about the “OPA1 long and short forms (western blot)” value ([3]; THP-1, 4 μM, 16 hrs) of the same compound?
A: decrease in the long (L-OPA1) forms and accumulation of short (S-OPA1) forms of OPA1

Q: What about the “Synergy of CLPB deletion with Venetoclax in vivo (bioluminescence, circulating GFP+ leukemic cells)” value ([5]; 100 mg/kg daily oral gavage day 6 to day 20) of the same compound?
A: synergizes efficiently with Venetoclax in both Venetoclax-sensitive and resistant xenografts

Q: And the “CLPB and OPA1 protein levels in wild-type tumors at late stages versus vehicle-treated mice” value ([5]; sorted GFP+ sgRosa leukemia cells from bone marrow)?
A: significantly elevated CLPB and OPA1 protein levels

Q: What about the “Increase of Venetoclax concentration required for the 50% cell death in VR cell lines in respect to the original clones (Par.)” value ([6]; MOLM-13 and MV4-11 VR versus parental) of the same compound?
A: more than 100 fold

Q: What about the “Sensitivity of VR cells to Venetoclax upon ablation of CLPB” value ([6]; VR MOLM-13 and MV4-11 with CLPB sgRNAs) of the same compound?
A: significantly re-sensitized VR cells

Q: And the “Cell death by Annexin-V staining” value (AML cells; AML cells, 16 hrs)?
A: cell death

Q: And the “Cell death induced by Venetoclax upon depletion of OPA1” value (AML cells; THP-1, 4 μM, 16 hrs)?
A: enhances cell death

Q: What about the “Annexin-V cell death in cells transduced with sgRNAs targeting CLPB versus negative controls” value (AML cells; puromycin-selected AML cells, 16 hrs) of the same compound?
A: hypersensitivity of these cells to Venetoclax

Q: And the “Mitochondrial depolarization in CLPB-knockout cells (TMRM)” value ([7]; AML cells lacking CLPB versus control)?
A: more prone to Venetoclax-induced mitochondrial depolarization

Q: What about the “Mitochondrial membrane potential (TMRM)” value ([7]; THP-1 4 μM, MOLM-13 35 nM) of the same compound?
A: depolarization of mitochondria

Q: And the “Mitochondrial ultrastructure after treatment” value [8]?
A: abnormal ultrastructure after Venetoclax treatment, characterized by a lower number of cristae and increase of the cristae lumen width

Q: What about the “Venetoclax IC50 upon CLPB depletion” value ([2]; CLPB sgRNAs versus sgRosa, all the cell lines tested, 48 hours) of the same compound?
A: significantly reduced the IC50

Q: What about the “Venetoclax half maximal inhibitory concentration (IC50) upon deletion of BAX and PMAIP1” value ([2]; KASUMI-1 and MOLM-13 cells, 48 hours, Cell-TiterGlo) of the same compound?
A: significant increase

Q: What about the “Sensitivity of p53-deficient MOLM-13 to Venetoclax upon CLPB depletion” value ([2]; p53-KO clones B10 and B11, sgCLPB #1, 48 hours) of the same compound?
A: fully re-sensitize p53-deficient MOLM-13 to Venetoclax treatment

Q: And the “Venetoclax IC50 with TP53 sgRNAs” value ([2]; p53 wild-type MOLM-13 and p53-mutant KASUMI-1, 48 hours)?
A: increased the Venetoclax IC50 in p53 wild-type MOLM-13 but not p53-mutant KASUMI-1

Q: What about the “Patients that do not respond upfront” value (AML patients; Venetoclax with hypomethylating agents or low dose cytarabine) of the same compound?
A: approximately 30%

Q: And the “Response rates, single-agent Venetoclax in AML” value (AML patients; monotherapy)?
A: modest and rather short-lived
